Each structure is given as a SMILES string.

For one test, the target named is Coagulation factor X (Homo sapiens, UniProt P00742). The test is described as follows: Binding affinity towards human factor Xa.
The next test addresses Coagulation factor IX (Homo sapiens, UniProt P00740). Put plainly: Binding affinity towards human factor IXa.

Sequence of Coagulation factor IX (P00740 47-191 limits assumed): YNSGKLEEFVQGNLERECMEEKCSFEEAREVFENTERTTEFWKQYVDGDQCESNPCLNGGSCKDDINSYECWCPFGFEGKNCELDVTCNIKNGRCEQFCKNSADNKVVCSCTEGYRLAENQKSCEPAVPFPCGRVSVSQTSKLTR
Sequence of Coagulation factor IX (P00740 227-461 limits assumed): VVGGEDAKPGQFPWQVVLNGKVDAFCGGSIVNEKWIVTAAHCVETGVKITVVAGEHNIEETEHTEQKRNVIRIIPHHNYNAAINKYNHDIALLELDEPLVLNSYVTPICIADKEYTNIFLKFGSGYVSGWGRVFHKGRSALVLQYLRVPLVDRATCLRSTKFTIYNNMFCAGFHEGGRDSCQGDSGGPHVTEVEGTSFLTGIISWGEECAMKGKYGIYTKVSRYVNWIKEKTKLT
Sequence of Coagulation factor X (P00742 41-179 limits assumed): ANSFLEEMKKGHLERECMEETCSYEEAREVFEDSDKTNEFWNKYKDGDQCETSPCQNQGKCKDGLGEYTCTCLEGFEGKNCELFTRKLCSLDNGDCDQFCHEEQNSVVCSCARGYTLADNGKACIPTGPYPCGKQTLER
Sequence of Coagulation factor X (P00742 235-488 limits assumed): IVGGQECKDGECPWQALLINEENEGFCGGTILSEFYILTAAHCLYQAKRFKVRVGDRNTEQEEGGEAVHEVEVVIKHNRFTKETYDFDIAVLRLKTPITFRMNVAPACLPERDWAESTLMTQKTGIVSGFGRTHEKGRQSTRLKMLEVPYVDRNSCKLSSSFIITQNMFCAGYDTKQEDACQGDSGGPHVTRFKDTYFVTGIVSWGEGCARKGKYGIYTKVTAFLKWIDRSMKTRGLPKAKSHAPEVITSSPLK

The Ki is the dissociation constant of the complex between target and ligand, obtained from inhibition or displacement. Turning to `N=C(N)c1ccc2[nH]cc(C(Cc3ccc(N)cc3)C(=O)Nc3ccc(-n4cnc5ccccc54)cc3)c2c1` (stereo not given), the values for the Ki on Coagulation factor X and at Coagulation factor IX were 4 nM and 75 nM, respectively.

Consider `N=C(N)c1ccc2[nH]cc(C(Cc3cccc(C(=O)O)c3)C(=O)Nc3ccc(-n4cnc5ccccc54)cc3F)c2c1` (stereo not given), for which the results for the Ki at Coagulation factor X and on Coagulation factor IX were 1.8 nM and 59 nM, respectively.

With `N=C(N)c1ccc2[nH]cc(C(Cc3ccccc3)C(=O)NCc3cccc(C(=O)Nc4nc5ccccc5[nH]4)c3)c2c1` (stereo not given), the Ki amounted to 2600 nM at Coagulation factor X and 1900 nM at Coagulation factor IX.

Regarding `N=C(N)c1ccc2[nH]cc(C(CC(=O)Nc3ccc(-n4cnc5ccccc54)cc3)Cc3ccccc3)c2c1` (stereo not given), the Ki was found to be 36 nM at Coagulation factor X and 250 nM at Coagulation factor IX.

For `N=C(N)c1ccc2[nH]cc(CC(=O)Nc3ccc(-c4ccccc4S(N)(=O)=O)cc3)c2c1`, the Ki at Coagulation factor X turned out to be 3.2 nM; on Coagulation factor IX it was 6700 nM.

For `CCC(C(=O)Nc1ccc(-n2cnc3ccccc32)cc1)c1c[nH]c2ccc(C(=N)N)cc12` (stereo not given), the Ki amounted to 2.8 nM on Coagulation factor X and 160 nM at Coagulation factor IX.

In the case of `N=C(N)c1ccc2[nH]cc(C(CCc3ccccc3)C(=O)Nc3ccc(-n4cnc5ccccc54)cc3F)c2c1` (stereo not given), the results for the Ki at Coagulation factor X and on Coagulation factor IX were 6.1 nM and 240 nM, respectively.

On to `CS(=O)(=O)c1ccc2nc(NC(=O)c3ccc(CNC(=O)C(Cc4ccccc4)c4c[nH]c5ccc(C(=N)N)cc45)cc3)[nH]c2c1` (stereo not given), for which the figures for the Ki on Coagulation factor X and at Coagulation factor IX were 1100 nM and 660 nM, respectively.

Take `CC(C(=O)Nc1ccc(-n2cnc3ccccc32)cc1)c1c[nH]c2ccc(C(=N)N)cc12` (stereo not given): the Ki on Coagulation factor X was found to be 3 nM; on Coagulation factor IX, 480 nM.

With `N=C(N)c1ccc2[nH]cc([C@@H](Cc3ccccc3)C(=O)Nc3ccc(-n4cnc5ccccc54)cc3F)c2c1`, the results for the Ki at Coagulation factor X and on Coagulation factor IX were 1.3 nM and 19 nM, respectively.

In the case of `N=C(N)c1ccc2[nH]cc(C(Cc3ccccc3)C(=O)Nc3ccc(-n4cnc(-c5ccccc5)c4)cc3)c2c1` (stereo not given), the inhibition constant Ki is 79 nM on Coagulation factor X and 270 nM at Coagulation factor IX.

Consider `CC(C)(C(=O)Nc1ccc(-n2cnc3ccccc32)cc1)c1c[nH]c2ccc(C(=N)N)cc12`, for which the inhibitory constant (Ki) was found to be 2.2 nM at Coagulation factor X and 750 nM at Coagulation factor IX.

With `N=C(N)c1ccc2[nH]cc([C@H](Cc3ccccc3)C(=O)Nc3ccc(-n4cnc5ccccc54)cc3F)c2c1`, the results for the Ki on Coagulation factor X and on Coagulation factor IX were 26 nM and 820 nM, respectively.

Regarding `N=C(N)c1ccc2[nH]cc(CC(Cc3ccccc3)C(=O)Nc3ccc(-n4cnc5ccccc54)cc3)c2c1` (stereo not given), the Ki is 45 nM on Coagulation factor X and 130 nM at Coagulation factor IX.

As for `N=C(N)c1ccc2[nH]cc(C(CC3CC3)C(=O)Nc3ccc(-n4cnc5ccccc54)cc3)c2c1` (stereo not given), the Ki is 14 nM at Coagulation factor X and 3800 nM at Coagulation factor IX.

Regarding `N=C(N)c1ccc2[nH]cc(C(Cc3ccccc3)C(=O)NCc3ccc(C(=O)Nc4nc5ccccc5[nH]4)cc3)c2c1` (stereo not given), the Ki on Coagulation factor X came out at 810 nM; at Coagulation factor IX it was 930 nM.

Regarding `N=C(N)c1ccc2[nH]cc(C(Cc3ccc(NC(=O)c4ccccc4)cc3)C(=O)Nc3ccc(-n4cnc5ccccc54)cc3)c2c1` (stereo not given), the figures for the Ki at Coagulation factor X and at Coagulation factor IX were 18 nM and 270 nM, respectively.

Regarding `N=C(N)c1ccc2[nH]cc(C(Cc3ccc4ccccc4c3)C(=O)Nc3ccc(-n4cnc5ccccc54)cc3F)c2c1` (stereo not given), the Ki at Coagulation factor X turned out to be 28 nM; at Coagulation factor IX, 98 nM.

Take `N=C(N)c1ccc2[nH]cc(C(Cc3ccc(NS(=O)(=O)c4ccccc4)cc3)C(=O)Nc3ccc(-n4cnc5ccccc54)cc3)c2c1` (stereo not given): the Ki is 19 nM at Coagulation factor X and 130 nM at Coagulation factor IX.

As for `N=C(N)c1ccc2[nH]cc(C(Cc3ccccc3)C(=O)Nc3ccc(-c4ccccc4S(N)(=O)=O)cc3)c2c1` (stereo not given), the Ki is 0.63 nM on Coagulation factor X and 660 nM on Coagulation factor IX.

For the compound `N=C(N)c1ccc2[nH]cc(C(Cc3ccccc3)C(=O)Nc3ccc(-n4cnc5ccccc54)cc3F)c2c1` (racemic), the Ki came out at 2.5 nM on Coagulation factor X and 63 nM at Coagulation factor IX.

For `Cn1cc(C(Cc2ccccc2)C(=O)Nc2ccc(-n3cnc4ccccc43)cc2F)c2cc(C(=N)N)ccc21` (stereo not given), the Ki stood at 160 nM on Coagulation factor X and 360 nM on Coagulation factor IX.

With `N=C(N)c1ccc2[nH]cc(C(Cc3cccnc3)C(=O)Nc3ccc(-n4cnc5ccccc54)cc3)c2c1` (stereo not given), the inhibition constant Ki at Coagulation factor X was 7 nM; at Coagulation factor IX, 1200 nM.

`N=C(N)c1ccc2[nH]cc(C(Cc3ccccc3)C(=O)NCc3ccc(-n4cnc5ccccc54)cc3)c2c1` (stereo not given): the Ki at Coagulation factor X is 72 nM; at Coagulation factor IX, 310 nM.

Consider `N=C(N)c1ccc2ccn(C(Cc3ccccc3)C(=O)Nc3ccc(-n4cnc5ccccc54)cc3F)c2c1` (stereo not given), for which the Ki at Coagulation factor X came to 5.6 nM; on Coagulation factor IX, 300 nM.

The record behind these values is ChEMBL document CHEMBL1137916, “5-Amidinoindoles as dual inhibitors of coagulation factors IXa and Xa” (Bioorg Med Chem Lett, 2004).
